Assay results published in ChEMBL document CHEMBL4368854, “Assessment of a bifendate derivative bearing a 6,7-dihydro-dibenzo[c,e]azepine scaffold as a potential anti-metastatic agent” (Medchemcomm, 2018).
pIC50: −log10 of the molar value. Calls of active or inactive are those of the source. No cut-off for these calls is given here.

What was measured:
[1] = system: MDA-MB-231; experiment: Cytotoxicity against human MDA-MB-231 cells after 72 hrs by MTT assay; assay type: functional, cell-based; conditions: MDA-MB-231, 72 h
[2] = system: MDA-MB-231; experiment: Anti-invasive activity against human MDA-MB-231 cells at 15 uM after 24 hrs by crystal violet staining based matrigel coated transwell assay relative to control; assay type: functional
[3] = molecular target: 72 kDa type IV collagenase (Homo sapiens) (UniProt P08253); experiment: Inhibition of MMP2 activity in human MDA-MB-231 cells at 45 uM measured after 24 hrs by coomassie brilliant blue staining based gelatin zymographic method; assay type: cell-based
[4] = system: MDA-MB-231; experiment: Anti-invasive activity against human MDA-MB-231 cells at 45 uM after 24 hrs by crystal violet staining based matrigel coated transwell assay relative to control; assay type: functional
[5] = system: MDA-MB-231; experiment: Antimigratory activity against human MDA-MB-231 cells at 45 uM after 24 hrs by crystal violet staining based transwell assay relative to control; assay type: functional
[6] = molecular target: Matrix metalloproteinase-9 (Homo sapiens) (UniProt P14780); experiment: Inhibition of MMP9 activity in human MDA-MB-231 cells measured after 24 hrs by coomassie brilliant blue staining based gelatin zymographic method; assay type: cell-based
[7] = molecular target: 72 kDa type IV collagenase (Homo sapiens) (UniProt P08253); experiment: Inhibition of MMP2 activity in human MDA-MB-231 cells measured after 24 hrs by coomassie brilliant blue staining based gelatin zymographic method; assay type: cell-based
[8] = system: MDA-MB-231; experiment: Down regulation of MMP9 expression in human MDA-MB-231 cells after 24 hrs by Western blot analysis; assay type: functional, cell-based
[9] = system: MDA-MB-231; experiment: Down regulation of MMP2 expression in human MDA-MB-231 cells after 24 hrs by Western blot analysis; assay type: functional, cell-based
[10] = system: MDA-MB-231; experiment: Antimigratory activity against human MDA-MB-231 cells at 15 uM after 24 hrs by crystal violet staining based transwell assay relative to control; assay type: functional
[11] = molecular target: Matrix metalloproteinase-9 (Homo sapiens) (UniProt P14780); experiment: Inhibition of MMP9 activity in human MDA-MB-231 cells at 45 uM measured after 24 hrs by coomassie brilliant blue staining based gelatin zymographic method; assay type: cell-based
[12] = system: MDA-MB-231; experiment: Antimigratory activity against human MDA-MB-231 cells assessed as reduction in cell migration towards wound area at 5 to 45 uM measured up to 24 hrs by inverted microscopic analysis; assay type: functional, cell-based
[13] = system: MDA-MB-231; experiment: Antimigratory activity against human MDA-MB-231 cells assessed as reduction in cell migration towards wound area at 45 uM measured up to 24 hrs by inverted microscopic analysis; assay type: functional, cell-based

Sequence of Matrix metalloproteinase-9 (Homo sapiens) (P14780 whole entry): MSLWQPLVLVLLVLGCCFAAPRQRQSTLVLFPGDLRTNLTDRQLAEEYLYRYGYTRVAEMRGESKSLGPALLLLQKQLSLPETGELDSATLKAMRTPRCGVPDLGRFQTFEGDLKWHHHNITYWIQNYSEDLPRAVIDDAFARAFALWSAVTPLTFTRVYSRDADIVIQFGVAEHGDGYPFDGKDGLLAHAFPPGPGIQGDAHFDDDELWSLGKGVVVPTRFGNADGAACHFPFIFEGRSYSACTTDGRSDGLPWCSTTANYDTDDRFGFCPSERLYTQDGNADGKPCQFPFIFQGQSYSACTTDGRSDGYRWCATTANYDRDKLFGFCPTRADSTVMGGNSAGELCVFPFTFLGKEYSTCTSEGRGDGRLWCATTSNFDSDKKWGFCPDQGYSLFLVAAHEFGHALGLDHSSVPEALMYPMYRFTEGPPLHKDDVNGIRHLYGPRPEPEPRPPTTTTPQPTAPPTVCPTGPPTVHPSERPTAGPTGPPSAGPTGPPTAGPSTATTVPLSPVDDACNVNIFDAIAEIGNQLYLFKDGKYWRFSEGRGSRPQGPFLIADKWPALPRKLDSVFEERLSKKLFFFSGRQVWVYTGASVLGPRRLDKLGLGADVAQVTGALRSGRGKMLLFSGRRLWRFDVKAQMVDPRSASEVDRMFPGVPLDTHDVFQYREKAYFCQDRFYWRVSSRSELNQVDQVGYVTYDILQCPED
Sequence of 72 kDa type IV collagenase (Homo sapiens) (P08253 110-660 limits assumed): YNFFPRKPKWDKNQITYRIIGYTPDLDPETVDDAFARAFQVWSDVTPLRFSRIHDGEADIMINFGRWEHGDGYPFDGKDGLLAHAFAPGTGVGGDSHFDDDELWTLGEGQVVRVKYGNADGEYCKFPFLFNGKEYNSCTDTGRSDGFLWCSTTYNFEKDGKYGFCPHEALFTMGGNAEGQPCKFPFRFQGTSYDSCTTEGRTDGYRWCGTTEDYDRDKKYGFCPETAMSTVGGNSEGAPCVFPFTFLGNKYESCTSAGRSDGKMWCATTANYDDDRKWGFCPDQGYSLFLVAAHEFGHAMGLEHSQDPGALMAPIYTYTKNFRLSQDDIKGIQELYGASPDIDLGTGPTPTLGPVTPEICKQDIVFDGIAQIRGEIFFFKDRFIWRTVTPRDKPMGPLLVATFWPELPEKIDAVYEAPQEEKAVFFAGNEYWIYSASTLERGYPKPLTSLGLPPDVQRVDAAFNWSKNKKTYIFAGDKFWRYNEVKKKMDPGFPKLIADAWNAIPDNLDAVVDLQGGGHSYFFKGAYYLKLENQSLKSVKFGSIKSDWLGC

Row | inhibition [3] [%] | inhibition [6] | inhibition [7] | inhibition [11] [%] | SMILES | pIC50 [1] | Activity [2] | Activity [4] [%] | Activity [5] [%] | Activity [8] | Activity [9] | Activity [10] [%] | Activity [12] | Activity [13]
1 | 56.9 | Dose-dependent effect | Dose-dependent effect | 30.8 | COc1cc2c(c3c1OCO3)-c1c(cc(OC)c3c1OCO3)CN(CCc1ccc3c(c1)OCO3)C2 | 4.06 | <=54.4% | 71.2 | 47.5 | Dose-dependent effect | Dose-dependent effect | 32.9 | Active | –
2 | – | – | – | – | COC(=O)c1cc(OC)c2c(c1-c1c(C(=O)OC)cc(OC)c3c1OCO3)OCO2 | – | – | – | – | – | – | – | – | Active
